According to BindingDB's records for doi:10.1016/j.bmcl.2010.02.003 (Boehringer Ingelheim (Canada), 2010):

Legend:
Cytochrome P450 1A2 = target: T1, Cytochrome P450 1A2 (Homo sapiens, UniProt P05177); test: Inhibition of CYP1A2
T1 sequence (P05177 whole entry): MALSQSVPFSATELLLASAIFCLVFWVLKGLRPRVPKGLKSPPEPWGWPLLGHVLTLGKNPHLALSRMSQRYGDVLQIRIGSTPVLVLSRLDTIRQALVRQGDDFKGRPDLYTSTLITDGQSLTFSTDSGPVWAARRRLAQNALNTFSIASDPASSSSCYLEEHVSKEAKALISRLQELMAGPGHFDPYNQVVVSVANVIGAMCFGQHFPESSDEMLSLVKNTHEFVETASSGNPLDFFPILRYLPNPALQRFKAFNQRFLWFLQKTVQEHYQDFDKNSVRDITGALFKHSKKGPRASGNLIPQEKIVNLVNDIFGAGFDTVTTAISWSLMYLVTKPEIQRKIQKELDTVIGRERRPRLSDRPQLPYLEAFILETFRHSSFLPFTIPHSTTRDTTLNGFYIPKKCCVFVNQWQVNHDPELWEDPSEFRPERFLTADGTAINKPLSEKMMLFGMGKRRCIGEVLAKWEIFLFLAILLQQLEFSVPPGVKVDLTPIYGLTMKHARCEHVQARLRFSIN

Cytochrome P450 2D6 = Cytochrome P450 2D6 (Homo sapiens, UniProt P10635); test: Inhibition of CYP2D6
Sequence of Cytochrome P450 2D6 (P10635 whole entry): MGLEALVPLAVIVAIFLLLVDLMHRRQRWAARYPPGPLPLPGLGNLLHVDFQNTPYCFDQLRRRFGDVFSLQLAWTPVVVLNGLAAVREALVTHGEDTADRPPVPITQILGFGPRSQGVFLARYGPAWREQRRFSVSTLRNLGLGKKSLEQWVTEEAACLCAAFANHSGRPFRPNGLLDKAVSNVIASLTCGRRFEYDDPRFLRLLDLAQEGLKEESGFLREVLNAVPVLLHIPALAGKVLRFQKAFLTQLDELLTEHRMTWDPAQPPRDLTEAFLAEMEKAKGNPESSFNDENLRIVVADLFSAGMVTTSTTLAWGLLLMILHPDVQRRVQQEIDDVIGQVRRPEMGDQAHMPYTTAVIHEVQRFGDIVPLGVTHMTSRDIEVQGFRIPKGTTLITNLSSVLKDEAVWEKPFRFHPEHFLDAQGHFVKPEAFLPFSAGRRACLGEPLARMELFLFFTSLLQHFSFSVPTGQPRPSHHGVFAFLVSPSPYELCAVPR

Cytochrome P450 3A4 = Cytochrome P450 3A4 (Homo sapiens, UniProt P08684); test: Inhibition of CYP3A4
Sequence of Cytochrome P450 3A4 (P08684 whole entry): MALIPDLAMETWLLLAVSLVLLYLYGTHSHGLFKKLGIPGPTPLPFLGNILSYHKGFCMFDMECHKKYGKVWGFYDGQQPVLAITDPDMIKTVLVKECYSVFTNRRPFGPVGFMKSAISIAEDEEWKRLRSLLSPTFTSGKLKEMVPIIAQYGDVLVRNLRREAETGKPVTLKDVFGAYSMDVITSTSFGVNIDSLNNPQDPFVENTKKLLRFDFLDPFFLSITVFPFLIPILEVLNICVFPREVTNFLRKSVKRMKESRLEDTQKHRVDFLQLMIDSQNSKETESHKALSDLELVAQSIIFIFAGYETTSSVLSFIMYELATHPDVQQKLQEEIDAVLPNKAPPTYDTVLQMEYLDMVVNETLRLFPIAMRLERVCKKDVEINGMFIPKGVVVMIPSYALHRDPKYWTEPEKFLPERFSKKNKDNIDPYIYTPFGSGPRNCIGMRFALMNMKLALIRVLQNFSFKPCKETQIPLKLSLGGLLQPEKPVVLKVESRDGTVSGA

## O=C(N[C@@H](Cc1c[nH]c2ccc(O)cc12)c1cscn1)c1ccc2c(c1)nc(-c1ccoc1)n2C1CCCCC1 [1-cyclohexyl-2-(furan-3-yl)-N-((S)-2-(5-hydroxy-1H-indol-3-yl)-1-(thiazol-4-yl)ethyl)-1H-benzo[d]imidazole-5-carboxamide]
Cytochrome P450 1A2
  IC50: > 30 µM

## O=C(O)/C=C/c1ccc(NC(=O)C2(NC(=O)c3ccc4c(c3)nc(-c3ccoc3)n4C3CCCCC3)CCCC2)cc1 [3-(4-(1-(1-cyclohexyl-2-(furan-3-yl)-1H-benzo[d]imidazole-5-carboxamido)cyclopentanecarboxamido)phenyl)acrylic acid]
Cytochrome P450 2D6
  IC50: > 30 µM
Cytochrome P450 3A4
  IC50: > 30 µM
Cytochrome P450 1A2
  IC50: > 30 µM

## O=C(O)/C=C/c1ccc(NC(=O)C2(NC(=O)c3ccc4c(c3)nc(-c3ccccn3)n4C3CCCCC3)CCCC2)cc1 [3-(4-(1-(1-cyclohexyl-2-(pyridin-2-yl)-1H-benzo[d]imidazole-5-carboxamido)cyclopentanecarboxamido)phenyl)acrylic acid]
Cytochrome P450 2D6
  IC50: > 30 µM
Cytochrome P450 3A4
  IC50: > 30 µM
Cytochrome P450 1A2
  IC50: > 30 µM
